From patent publication US20260144769A1, “4-PHENYLBUTYRATE RESTORED GABA UPTAKE AND REDUCED SEIZURES IN SLC6A1 VARIANT-MEDIATED DISORDERS” (Vanderbilt University, priority 2022, published 2026)

Molecular target: T1, GAT-1 in corrected isogenic control astrocytes (Homo sapiens, UniProt P30531)
T1 construct: endogenous in cells; host or cells: astrocytes differentiated from CRISPR-corrected isogenic control iPSCs
Experiment: 3H GABA uptake, corrected isogenic control iPSC derived astrocytes
Type: cell-based
Details: PBA 2 mM, 24 hrs
Description: Live images of human neural progenitor cells (NPCs), astrocytes and GABAergic inhibitory neurons differentiated from the human induced pluripotent stem cells (iPSCs) on the day of experiment. […] The DMSO treated corrected or patient cells was taken as 1. […] GABA flux was measured after 30 min transport at room temperature. The influx of GABA, expressed in pmol/μg protein/min, was averaged from duplicates for each condition and for each transfection. The average counting was DMSO treated condition taken as 1. In FIG. 5B, FIG. 5D and FIG. 5F, 966 stands for CI-966 (50 μM) and 711 stands for NNC-711 (35 μM) that was applied 30 min to the astrocytes transfected with the wildtype GAT-1^YFP before preincubation and removed during preincubation. In FIGS. 5B and D, ***p<0.001 vs. corrected DMSO treated. § § <0.01, § § § p<0.001 vs. patient DMSO treated. […] In FIGS. 5B-E, n=4-8 batches of cells. In FIG. 5F, n=4-5 different transfections). Unpaired t test was used for FIG. 5C and FIG. 5E. […] Values were expressed as mean±S.E.M.). […]
Briefly, cells were cultured in […] dishes for 3 days before the GABA uptake experiment in DMEM with 10% fetal bovine serum and 1% penicillin/streptomycin. […] Glacial acetic acid was added, and lysates were then determined on a liquid scintillator with QuantaSmart. […]

T1 sequence (P30531 whole entry): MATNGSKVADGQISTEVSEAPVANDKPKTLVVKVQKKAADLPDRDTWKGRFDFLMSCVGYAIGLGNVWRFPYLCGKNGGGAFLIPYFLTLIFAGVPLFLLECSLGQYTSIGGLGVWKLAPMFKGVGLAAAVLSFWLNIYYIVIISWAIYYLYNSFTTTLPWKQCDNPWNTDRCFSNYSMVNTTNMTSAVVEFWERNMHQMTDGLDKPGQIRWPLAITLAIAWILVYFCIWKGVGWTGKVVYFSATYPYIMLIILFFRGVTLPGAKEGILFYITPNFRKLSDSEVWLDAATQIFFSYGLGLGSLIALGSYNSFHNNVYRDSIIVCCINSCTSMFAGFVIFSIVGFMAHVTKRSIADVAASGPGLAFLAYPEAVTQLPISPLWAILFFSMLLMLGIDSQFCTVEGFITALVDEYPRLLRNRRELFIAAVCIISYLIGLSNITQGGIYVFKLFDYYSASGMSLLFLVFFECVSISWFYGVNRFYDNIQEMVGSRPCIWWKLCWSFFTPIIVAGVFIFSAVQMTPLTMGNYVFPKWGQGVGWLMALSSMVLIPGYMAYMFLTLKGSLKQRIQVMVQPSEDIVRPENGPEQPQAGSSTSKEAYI

`O=C(O)CCCc1ccccc1` [PBA, 4-phenylbutyric acid] was tested, and the “GABA uptake normalized to its DMSO treated” value was 1.173±0.026.
